According to ChEMBL document CHEMBL3885881, “DrugMatrix”:

Organism: Rattus norvegicus
Test: DrugMatrix - Regimen: Daily Repeat
Type: toxicity, organism-based, Sprague-Dawley
Design: regimen Daily Repeat, gender Male, age 6-8 weeks
Conditions: in vivo, ip, 10 mg/kg, route intraperitoneal, dose level High, vehicle 100 % SALINE; for ALANINE AMINOTRANSFERASE / ALBUMIN / ALKALINE PHOSPHATASE / ASPARTATE AMINOTRANSFERASE / BLOOD UREA NITROGEN / CHLORIDE / CHOLESTEROL / CREATINE PHOSPHOKINASE / CREATININE / GLUCOSE / LACTATE DEHYDROGENASE / LIPASE / PHOSPHORUS / SODIUM / TOTAL BILIRUBIN / TOTAL PROTEIN / URIC ACID / POTASSIUM: tissue Plasma
[1] = 120 h, tissue Blood, time 5 day

Work on COBALTOUS CHLORIDE yielded an ABSOLUTE EOSINOPHIL [1] of 74 cells/µL, an ABSOLUTE LYMPHOCYTE [1] of 8680 cells/µL and an ABSOLUTE MONOCYTE [1] of 210 cells/µL. For the same sequence, the ABSOLUTE SEGMENTED NEUTROPHIL [1] was 1660 cells/µL, the BASOPHIL [1] was 0.44% and the EOSINOPHIL [1] was 0.68%. For the same sequence, the “ERYTHROCYTE COUNT” value [1] was 7.83 x10E6/uL, the HEMATOCRIT [1] was 48.96% and the HEMOGLOBIN [1] was 15.82 G/DL. The “LEUKOCYTE COUNT” value [1] was 10.72 x10E3/uL, the LYMPHOCYTE [1] was 81.38% and the “MEAN CORPUSCULAR HEMOGLOBIN” value [1] was 20.22 pg. The “MEAN CORPUSCULAR HEMOGLOBIN CONCENTRATION” value [1] was 32.34 G/DL, the “MEAN CORPUSCULAR VOLUME” value [1] was 62.58 fL and the MONOCYTE [1] was 1.94%. The NEUTROPHIL [1] was 15.1%, the “PLATELET COUNT” value [1] was 1648.2 x10E3/uL and the “ALANINE AMINOTRANSFERASE” value (120 h, time 5 day) was 27.2 u/L. For the same sequence, the ALBUMIN (120 h, time 5 day) was 3.7 G/DL, the “ALKALINE PHOSPHATASE” value (120 h, time 5 day) was 212.6 u/L and the “ASPARTATE AMINOTRANSFERASE” value (120 h, time 5 day) was 86.6 u/L. The “BLOOD UREA NITROGEN” value (120 h, time 5 day) was 17.2 mg/dL, the CHLORIDE (120 h, time 5 day) was 110.4 MEQ/L and the CHOLESTEROL (120 h, time 5 day) was 49.8 mg/dL. For the same sequence, the “CREATINE PHOSPHOKINASE” value (120 h, time 5 day) was 277.6 u/L, the CREATININE (120 h, time 5 day) was 0.56 mg/dL and the GLUCOSE (120 h, time 5 day) was 125.8 mg/dL. The “LACTATE DEHYDROGENASE” value (120 h, time 5 day) was 60.2 u/L, the LIPASE (120 h, time 5 day) was 31.2 u/L and the PHOSPHORUS (120 h, time 5 day) was 11.88 mg/dL. For the same sequence, the SODIUM (120 h, time 5 day) was 148.6 MEQ/L, the “TOTAL BILIRUBIN” value (120 h, time 5 day) was 0.26 mg/dL and the “TOTAL PROTEIN” value (120 h, time 5 day) was 6.26 G/DL. The “URIC ACID” value (120 h, time 5 day) was 1.38 mg/dL, the ABSOLUTE BASOPHIL ([…], tissue Blood, time 14 day) was 72 cells/µL and the ABSOLUTE EOSINOPHIL ([…], tissue Blood, time 14 day) was 76 cells/µL. It also gave an ABSOLUTE LYMPHOCYTE ([…], tissue Blood, time 14 day) of 8200 cells/µL, an ABSOLUTE MONOCYTE ([…], tissue Blood, time 14 day) of 260 cells/µL and an ABSOLUTE SEGMENTED NEUTROPHIL ([…], tissue Blood, time 14 day) of 1320 cells/µL. For the same sequence, the BASOPHIL ([…], tissue Blood, time 14 day) was 0.66%, the EOSINOPHIL ([…], tissue Blood, time 14 day) was 0.8% and the “ERYTHROCYTE COUNT” value ([…], tissue Blood, time 14 day) was 8.58 x10E6/uL. For the same sequence, the HEMATOCRIT ([…], tissue Blood, time 14 day) was 54.6%, the HEMOGLOBIN ([…], tissue Blood, time 14 day) was 17.66 G/DL and the “LEUKOCYTE COUNT” value ([…], tissue Blood, time 14 day) was 9.97 x10E3/uL. The LYMPHOCYTE ([…], tissue Blood, time 14 day) was 81.92%, the “MEAN CORPUSCULAR HEMOGLOBIN” value ([…], tissue Blood, time 14 day) was 20.62 pg and the “MEAN CORPUSCULAR HEMOGLOBIN CONCENTRATION” value ([…], tissue Blood, time 14 day) was 32.34 G/DL. The MONOCYTE ([…], tissue Blood, time 14 day) was 2.54%, the NEUTROPHIL ([…], tissue Blood, time 14 day) was 13.72% and the “PLATELET COUNT” value ([…], tissue Blood, time 14 day) was 1213.6 x10E3/uL. For the same sequence, the ABSOLUTE BASOPHIL ([…], tissue Blood, time 28 day) was 170 cells/µL, the ABSOLUTE EOSINOPHIL ([…], tissue Blood, time 28 day) was 160 cells/µL and the ABSOLUTE LYMPHOCYTE ([…], tissue Blood, time 28 day) was 8960 cells/µL. For the same sequence, the ABSOLUTE MONOCYTE ([…], tissue Blood, time 28 day) was 240 cells/µL, the ABSOLUTE SEGMENTED NEUTROPHIL ([…], tissue Blood, time 28 day) was 2230 cells/µL and the BASOPHIL ([…], tissue Blood, time 28 day) was 1.38%. For the same sequence, the EOSINOPHIL ([…], tissue Blood, time 28 day) was 1.23%, the “ERYTHROCYTE COUNT” value ([…], tissue Blood, time 28 day) was 9.9 x10E6/uL and the HEMATOCRIT ([…], tissue Blood, time 28 day) was 61.68%. For the same sequence, the HEMOGLOBIN ([…], tissue Blood, time 28 day) was 19.49 G/DL, the “LEUKOCYTE COUNT” value ([…], tissue Blood, time 28 day) was 11.78 x10E3/uL and the LYMPHOCYTE ([…], tissue Blood, time 28 day) was 76.07%. The “MEAN CORPUSCULAR HEMOGLOBIN” value ([…], tissue Blood, time 28 day) was 19.7 pg, the “MEAN CORPUSCULAR HEMOGLOBIN CONCENTRATION” value ([…], tissue Blood, time 28 day) was 31.56 G/DL and the MONOCYTE ([…], tissue Blood, time 28 day) was 2.09%. For the same sequence, the NEUTROPHIL ([…], tissue Blood, time 28 day) was 19.02%, the “PLATELET COUNT” value ([…], tissue Blood, time 28 day) was 1119.7 x10E3/uL and the “ALANINE AMINOTRANSFERASE” value ([…], time 14 day) was 29 u/L. For the same sequence, the ALBUMIN ([…], time 14 day) was 3.74 G/DL, the “ALKALINE PHOSPHATASE” value ([…], time 14 day) was 189.6 u/L and the “ASPARTATE AMINOTRANSFERASE” value ([…], time 14 day) was 91.8 u/L. For the same sequence, the “BLOOD UREA NITROGEN” value ([…], time 14 day) was 14.6 mg/dL, the CHLORIDE ([…], time 14 day) was 112 MEQ/L and the CHOLESTEROL ([…], time 14 day) was 48.8 mg/dL. For the same sequence, the “CREATINE PHOSPHOKINASE” value ([…], time 14 day) was 182.6 u/L, the CREATININE ([…], time 14 day) was 0.52 mg/dL and the GLUCOSE ([…], time 14 day) was 124.8 mg/dL. For the same sequence, the “LACTATE DEHYDROGENASE” value ([…], time 14 day) was 103.2 u/L, the LIPASE ([…], time 14 day) was 22 u/L and the POTASSIUM ([…], time 14 day) was 6.24 MEQ/L. For the same sequence, the SODIUM ([…], time 14 day) was 149.8 MEQ/L, the “TOTAL BILIRUBIN” value ([…], time 14 day) was 0.26 mg/dL and the “TOTAL PROTEIN” value ([…], time 14 day) was 6.68 G/DL. The “URIC ACID” value ([…], time 14 day) was 1.26 mg/dL, the “ALANINE AMINOTRANSFERASE” value ([…], time 28 day) was 38.1 u/L and the ALBUMIN ([…], time 28 day) was 3.64 G/DL. The “ALKALINE PHOSPHATASE” value ([…], time 28 day) was 126.6 u/L, the “ASPARTATE AMINOTRANSFERASE” value ([…], time 28 day) was 117.5 u/L and the “BLOOD UREA NITROGEN” value ([…], time 28 day) was 15.5 mg/dL. The CHLORIDE ([…], time 28 day) was 110.7 MEQ/L, the CHOLESTEROL ([…], time 28 day) was 27.7 mg/dL and the “CREATINE PHOSPHOKINASE” value ([…], time 28 day) was 386.4 u/L. For the same sequence, the CREATININE ([…], time 28 day) was 0.7 mg/dL, the GLUCOSE ([…], time 28 day) was 88.3 mg/dL and the “LACTATE DEHYDROGENASE” value ([…], time 28 day) was 116.6 u/L. For the same sequence, the LIPASE ([…], time 28 day) was 2.8 u/L, the PHOSPHORUS ([…], time 28 day) was 10.92 mg/dL and the POTASSIUM ([…], time 28 day) was 6.81 MEQ/L. The SODIUM ([…], time 28 day) was 152.5 MEQ/L, the “TOTAL BILIRUBIN” value ([…], time 28 day) was 0.33 mg/dL and the “TOTAL PROTEIN” value ([…], time 28 day) was 6.59 G/DL. For the same sequence, the “URIC ACID” value ([…], time 28 day) was 1.31 mg/dL.
